≈ marks a conversion by molar mass, not a printed value.
How the values were obtained:
Type in all cases: functional
[1] = system: Mycobacterium tuberculosis; assay: Antitubercular activity against Mycobacterium tuberculosis H37Rv assessed as growth inhibition at MIC by Lowenstein-Jensen method
Staphylococcus aureus = assay: Antibacterial activity against Staphylococcus aureus MTCC 96 assessed as growth inhibition by agar streak dilution method
Escherichia coli = assay: Antibacterial activity against Escherichia coli MTCC 739 assessed as growth inhibition by agar streak dilution method
Aspergillus clavatus = assay: Antifungal activity against Aspergillus clavatus MTCC 1323 assessed as growth inhibition by agar streak dilution method
Aspergillus fumigatus = assay: Antifungal activity against Aspergillus fumigatus MTCC 343 assessed as growth inhibition by agar streak dilution method
Shigella flexneri = assay: Antibacterial activity against Shigella flexneri MTCC 1457 assessed as growth inhibition by agar streak dilution method
Salmonella typhi = assay: Antibacterial activity against Salmonella enterica subsp. enterica serovar Typhi MTCC 733 assessed as growth inhibition by agar streak dilution method
Candida albicans = assay: Antifungal activity against Candida albicans MTCC 183 assessed as growth inhibition by agar streak dilution method
[2] = system: Mycobacterium tuberculosis; assay: Antitubercular activity against Mycobacterium tuberculosis H37Rv assessed as growth inhibition by BACTEC MGIT method
Aspergillus niger = assay: Antifungal activity against Aspergillus niger MTCC 282 assessed as growth inhibition by agar streak dilution method
Proteus vulgaris = assay: Antibacterial activity against Proteus vulgaris MTCC 1771 assessed as growth inhibition by agar streak dilution method
Klebsiella pneumoniae = assay: Antibacterial activity against Klebsiella pneumoniae MTCC 109 assessed as growth inhibition by agar streak dilution method
[3] = system: Mycobacterium tuberculosis; assay: Antitubercular activity against Mycobacterium tuberculosis H37Rv assessed as growth inhibition by Lowenstein-Jensen method
Bacillus cereus = assay: Antibacterial activity against Bacillus cereus MTCC 430 assessed as growth inhibition by agar streak dilution method
Pseudomonas aeruginosa = assay: Antibacterial activity against Pseudomonas aeruginosa MTCC 741 assessed as growth inhibition by agar streak dilution method

Row | Compound | growth inhibition (GI) [1] [%] | MIC (Staphylococcus aureus) [µg/mL] | MIC (Escherichia coli) [µg/mL] | MIC (Aspergillus clavatus) [µg/mL] | MIC (Aspergillus fumigatus) [µg/mL] | MIC (Shigella flexneri) [µg/mL] | MIC (Salmonella typhi) [µg/mL] | MIC (Candida albicans) [µg/mL] | MIC [2] [µg/mL] | MIC (Aspergillus niger) [µg/mL] | MIC (Proteus vulgaris) [µg/mL] | MIC (Klebsiella pneumoniae) [µg/mL] | MIC [3] [µg/mL] | MIC (Bacillus cereus) [µg/mL] | MIC (Pseudomonas aeruginosa) [µg/mL]
1 | O=C(CSc1nnc(-c2cc3ccccc3oc2=O)o1)Nc1ccc([N+](=O)[O-])cc1 | 94 | 100 (≈ 236 µM) | 50 (≈ 118 µM) | 100 (≈ 236 µM) | 50 (≈ 118 µM) | 100 (≈ 236 µM) | 100 (≈ 236 µM) | 12.5 (≈ 29.5 µM) | > 6.25 | 100 (≈ 236 µM) | 25 (≈ 58.9 µM) | 100 (≈ 236 µM) | 500 (≈ 1180 µM) | 100 (≈ 236 µM) | > 100
2 | N#Cc1ccc(NC(=O)CSc2nnc(-c3cc4ccccc4oc3=O)o2)cc1 | 95 | 6.25 (≈ 15.5 µM) | 50 (≈ 124 µM) | > 100 | > 100 | > 100 | 100 (≈ 247 µM) | 50 (≈ 124 µM) | > 6.25 | > 100 | 100 (≈ 247 µM) | 50 (≈ 124 µM) | 200 (≈ 495 µM) | 100 (≈ 247 µM) | 100 (≈ 247 µM)
3 | Cc1ccc(NC(=O)CSc2nnc(-c3cc4ccccc4oc3=O)o2)cc1 | 94 | 100 (≈ 254 µM) | > 100 | 100 (≈ 254 µM) | > 100 | > 100 | 100 (≈ 254 µM) | > 100 | > 6.25 | 100 (≈ 254 µM) | > 100 | > 100 | 500 (≈ 1270 µM) | 50 (≈ 127 µM) | > 100
4 | COc1ccc(NC(=O)CSc2nnc(-c3cc4ccccc4oc3=O)o2)cc1 | 97 | 6.25 (≈ 15.3 µM) | 50 (≈ 122 µM) | 50 (≈ 122 µM) | 100 (≈ 244 µM) | 100 (≈ 244 µM) | 25 (≈ 61.1 µM) | 100 (≈ 244 µM) | > 6.25 | 100 (≈ 244 µM) | 100 (≈ 244 µM) | 100 (≈ 244 µM) | 50 (≈ 122 µM) | 100 (≈ 244 µM) | 25 (≈ 61.1 µM)
5 | CCOc1ccc(NC(=O)CSc2nnc(-c3cc4ccccc4oc3=O)o2)cc1 | 98 | 25 (≈ 59 µM) | 50 (≈ 118 µM) | 100 (≈ 236 µM) | 100 (≈ 236 µM) | 100 (≈ 236 µM) | 50 (≈ 118 µM) | 50 (≈ 118 µM) | > 6.25 | 100 (≈ 236 µM) | 100 (≈ 236 µM) | 100 (≈ 236 µM) | 25 (≈ 59 µM) | 100 (≈ 236 µM) | 6.25 (≈ 14.8 µM)
6 | CC(=O)Nc1ccc(NC(=O)CSc2nnc(-c3cc4ccccc4oc3=O)o2)cc1 | 95 | 50 (≈ 115 µM) | > 100 | 50 (≈ 115 µM) | > 100 | > 100 | > 100 | 100 (≈ 229 µM) | > 6.25 | > 100 | > 100 | > 100 | 250 (≈ 573 µM) | 100 (≈ 229 µM) | 50 (≈ 115 µM)
7 | O=C(CSc1nnc(-c2cc3ccccc3oc2=O)o1)Nc1nc2ccccc2s1 | 95 | 100 (≈ 229 µM) | > 100 | > 100 | > 100 | 100 (≈ 229 µM) | 100 (≈ 229 µM) | > 100 | > 6.25 | > 100 | 100 (≈ 229 µM) | > 100 | 500 (≈ 1150 µM) | 100 (≈ 229 µM) | 50 (≈ 115 µM)
8 | O=C(CSc1nnc(-c2cc3ccccc3oc2=O)o1)Nc1nc2ccc(Cl)cc2s1 | 96 | 50 (≈ 106 µM) | 50 (≈ 106 µM) | 100 (≈ 212 µM) | 25 (≈ 53.1 µM) | 25 (≈ 53.1 µM) | 50 (≈ 106 µM) | 100 (≈ 212 µM) | > 6.25 | 12.5 (≈ 26.5 µM) | 50 (≈ 106 µM) | 100 (≈ 212 µM) | 62.5 (≈ 133 µM) | 6.25 (≈ 13.3 µM) | 100 (≈ 212 µM)
9 | O=C(CSc1nnc(-c2cc3ccccc3oc2=O)o1)Nc1nc2ccc(Br)cc2s1 | 99 | 25 (≈ 48.5 µM) | 50 (≈ 97 µM) | 100 (≈ 194 µM) | 100 (≈ 194 µM) | 50 (≈ 97 µM) | 100 (≈ 194 µM) | 50 (≈ 97 µM) | > 6.25 | 25 (≈ 48.5 µM) | 50 (≈ 97 µM) | 100 (≈ 194 µM) | 12.5 (≈ 24.3 µM) | 3.12 (≈ 6.05 µM) | 100 (≈ 194 µM)
10 | O=C(CSc1nnc(-c2cc3ccccc3oc2=O)o1)Nc1nc2ccc(F)cc2s1 | 98 | 12.5 (≈ 27.5 µM) | 50 (≈ 110 µM) | 50 (≈ 110 µM) | 25 (≈ 55 µM) | 25 (≈ 55 µM) | 50 (≈ 110 µM) | 50 (≈ 110 µM) | > 6.25 | 12.5 (≈ 27.5 µM) | 100 (≈ 220 µM) | 100 (≈ 220 µM) | 50 (≈ 110 µM) | 12.5 (≈ 27.5 µM) | 50 (≈ 110 µM)

Source: ChEMBL document CHEMBL3044664, “Synthesis of coumarin-based 1,3,4-oxadiazol-2ylthio-N-phenyl/benzothiazolyl acetamides as antimicrobial and antituberculosis agents” (2013)
